Measured values: US20240262793A1, “QUINAZOLINE COMPOUND, AND PREPARATION METHOD THEREFOR AND APPLICATION THEREOF” (SHANGHAI PHARMACEUTICALS HOLDING CO., LTD., priority 2021, published 2024)

Legend:
Type in all cases: cell-based
Details in all cases: Homo sapiens, LPS 100 ng/mL
[1] = test system: TNF-α; test: Inhibition of TNF-α in PMA-differentiated, LPS-stimulated THP-1 cells (ELISA of cell supernatant)
Method: (§1) (1) Cell culture and inoculation: A stock solution of PMA at 1 mg/mL was diluted with serum-free RP1640 medium to prepare a 100 ng/mL PMA solution. Normal cultured THP-1 cells were centrifuged, resuspended in a complete medium (RP1640 medium containing 10% FBS), and counted. The cell density was adjusted to 2×10^6 cells/mL. An equal volume of 100 ng/mL PMA solution was then added, resulting in a cell density of 1×10^6 cells/mL and a final PMA concentration of 50 ng/mL. 100 μL of the cell suspension was seeded into each well of a 96-well cell culture plate with 1×10^5 cells per well. The 96-well cell culture plate was then incubated at 37° C. in a 5% CO2 atmosphere for 24 hours.
(§2) (2) Drug treatment of cells: On the second day, LPS was added to the complete medium to adjust the final concentration to 100 ng/mL, and the compound was prepared using this LPS-containing medium. The compound was added to the appropriate cell wells according to the prepared concentration gradient. The positive control group (LPS+) was a culture medium solution containing a final concentration of 100 ng/mL LPS and 0.1% DMSO without drugs, while the negative control group (LPS-) was a culture medium solution containing 0.1% DMSO without LPS. The volume in each well was 100 μL.
(§3) (3) Test sample collection: The mixture was centrifuged at 1000 rpm for 5 minutes and the cell supernatant and cell precipitate were collected separately. The cell supernatant was used to detect TNF-α and IL-6, and the cell precipitate was collected for IL-1β detection. After collecting the cell supernatant, the remaining liquid in the wells was discarded and 100 μL of cell lysis solution (20 mM Tris 8.0; 2 mM EDTA; 0.5% Triton X-100) was added to each well for complete lysis.
(§4) (4) Sample detection: The enzyme-linked immunosorbent assay (ELISA) was used to detect the content of each cytokine. The specific steps were performed according to the instructions provided in the corresponding kit manuals. The catalog numbers of kits are as follows: • Human TNF-alpha Quantikine ELISA Kit, Catalog # STA00D • Human IL-1 beta/IL-1F2 Quantikine ELISA Kit, Catalog # SLB50 • Human IL-6 Quantikine ELISA Kit, Catalog # S6050.
(§5) (5) Data analysis: The in vitro inhibitory activity of the compounds was calculated using the following formula: […]

[2] = test system: IL-6; test: Inhibition of IL-6 in PMA-differentiated, LPS-stimulated THP-1 cells (ELISA of cell supernatant)
Method: as §1, §2, §3, §4, §5

[3] = test system: IL-1β; test: Inhibition of IL-1β in PMA-differentiated, LPS-stimulated THP-1 cells (ELISA of cell lysate)
Method: as §1, §2, §3, §4, §5

| IC50 ([1]; THP-1, Table 7, PMA 50 ng/mL) [µM] | IC50 ([2]; THP-1, Table 7, PMA 50 ng/mL) [µM] | IC50 ([3]; THP-1, Table 7, PMA 50 ng/mL) [µM] | IC50 ([1]; THP-1, Table 8, PMA 50 ng/mL) [µM] | IC50 ([2]; THP-1, Table 8, PMA 50 ng/mL) [µM] | IC50 ([3]; THP-1, Table 8, PMA 50 ng/mL) [µM] | Compound |
| --- | --- | --- | --- | --- | --- | --- |
| 31.7 | 0.86 | 23.1 |  |  |  | CC(CCCN1CCS(=O)(=O)CC1)Nc1ccnc2cc(Cl)ccc12 (stereo not drawn) [Example 1, 4-(4-((7-Chloroquinolin-4-yl)amino)pentyl)thiomorpholine-1,1-dioxide] |
| 5.07 | 1.32 | 4.36 |  |  |  | CC(CCCN(CCO)Cc1ccc2ccccc2c1)Nc1ccnc2cc(Cl)ccc12 (stereo not drawn) [Example 25, 2-((4-((7-Chloroquinolin-4-yl)amino)pentyl)(naphthalen-2-ylmethyl)amino)ethan-1-ol] |
| 10.1 | 0.6 | 0.7 |  |  |  | CC(CCCN(CCO)Cc1ccc(S(C)(=O)=O)cc1)Nc1ncnc2cc(Cl)ccc12 (stereo not drawn) [Example 40] |
| 4.72 | 0.641 | 23.6 |  |  |  | CC(CCCN(CCO)Cc1cccc(F)c1)Nc1ccnc2cc(Cl)ccc12 (stereo not drawn) [Example 17, 2-((4-((7-Chloroquinolin-4-yl)amino)pentyl)(3-fluorobenzyl)amino)ethan-1-ol] |
| 14.8 | 0.91 | 49.6 |  |  |  | OCCN(CCCCCNc1ncnc2cc(F)ccc12)Cc1ncco1 [Example 48, 2-((5-((7-Fluoroquinazolin-4-yl)amino)pentyl)(oxazol-2-ylmethyl)amino)ethan-1-ol] |
| 2.63 | 0.36 | 4.11 |  |  |  | CC(CCCN(CCO)Cc1c(F)cccc1Cl)Nc1ccnc2cc(Cl)ccc12 (stereo not drawn) [Example 29, 2-((2-Fluoro-6-chlorobenzyl)(4-((7-chloroquinolin-4-yl)amino)pentyl)amino)ethan-1-ol] |
| 2.17 | 0.53 | 5.78 |  |  |  | COC(=O)c1ccc(CN(CCO)CCCC(C)Nc2ccnc3cc(Cl)ccc23)cc1 (stereo not drawn) [Example 27, Methyl 4-(((4-((7-chloroquinolin-4-yl)amino)pentyl)(2-hydroxyethyl)amino)methyl)benzoate] |
| 4.77 | 1.2 | 4.46 |  |  |  | CC(CCCN(CCO)Cc1cccc(C(F)(F)F)c1)Nc1ccnc2cc(Cl)ccc12 (stereo not drawn) [Example 24, 2-((4-((7-Chloroquinolin-4-yl)amino)pentyl)(3-(trifluoromethyl)benzyl)amino)ethan-1-ol] |
| 18.4 | 3.29 | 34.1 |  |  |  | CC(CCCN1CC2CCCC2C1)Nc1ccnc2cc(Cl)ccc12 (stereo not drawn) [Example 8, 7-Chloro-N-(5-(hexahydrocyclopenta[c]pyrrol-2 (1H)-yl)pentan-2-yl)quinolin-4-amine] |
| 0.97 | 0.12 | 1.34 |  |  |  | CC(CCCN(CCO)Cc1ccc(C#N)cc1F)Nc1ccnc2cc(Cl)ccc12 (stereo not drawn) [Example 30, 4-(((4-((7-Chloroquinolin-4-yl)amino)pentyl)(2-hydroxyethyl)amino)methyl)-3-fluorobenzonitrile] |
| 25.6 | 3.95 | 19.5 |  |  |  | CCOc1ncccc1CNCCCC(C)Nc1ccnc2cc(Cl)ccc12 (stereo not drawn) [Example 5, N^4-(7-Chloroquinolin-4-yl)-N^1-((2-ethoxypyridin-3-yl)methyl)pentane-1,4-diamine] |
| 6.91 | 2.06 | 9.79 |  |  |  | COC(=O)c1ccc(CN(CCO)CCCC(C)Nc2ccnc3cc(Cl)ccc23)c(OC)c1 (stereo not drawn) [Example 22, Methyl 4-(((4-((7-chloroquinolin-4-yl)amino)pentyl)(2-hydroxyethyl)amino)methyl)-3-methoxybenzoate] |
|  |  |  | 12.7 | 0.64 | 16.1 | CC(CCCN1C(=O)NC2(CCC2)C1=O)Nc1ncnc2cc(Cl)ccc12 (stereo not drawn) [Example 71, 7-(4-((7-Chloroquinazolin-4-yl)amino)pentyl)-5,7-diazaspiro[3.4]octane-6,8-dione] |
| 8.91 | 0.38 | 15 |  |  |  | CC(CCCN1CC(F)(F)C1)Nc1ccnc2cc(Cl)ccc12 (stereo not drawn) [Example 10, 7-Chloro-N-(5-(3,3-difluoroazetidin-1-yl)pentan-2-yl)quinolin-4-amine] |
